These results are taken from paper PMC11419154 (bioRxiv, 2024).

Format in all cases: cell-based, Drosophila melanogaster
In assay [1] the test system is class III dendritic arborizing (cIII da) neurons. The experiment in a line: Confocal GCaMP6f calcium imaging in larval cIII da neurons. To be noted: AITC application at time 0 s; n = 12 neurons.
For assay [2], the system named is Pickpocket (ppk RNAi in cIV da neurons). The experiment in a line: Calcium imaging in cIV da neurons with ppk RNAi. The conditions noted are these: versus attP genetic control; n = 6 neurons.
The test system of assay [3] is dTRPA1-C. Briefly: Calcium imaging in cIII da neurons expressing dTRPA1-C. To be noted: AITC application at time 0 s; n = 12 neurons.
The test system of assay [4] is dTRPA1-D. The experiment in a line: Calcium imaging in cIII da neurons expressing dTRPA1-D. The conditions noted are these: AITC application at time 0 s; n = 12 neurons.
The subject of assay [5] is Balboa (bba RNAi in cIV da neurons). Briefly: Calcium imaging in cIV da neurons with bba RNAi. The conditions noted are these: versus attP2 genetic control; n = 6 neurons.

Entries after “also recorded” stand apart in the source; their conditions may differ.

On to `C=CCN=C=S` [AITC, allyl isothiocyanate], for which, in assay [1], the “Calcium response of cIII da neurons, AITC” value was “do not activate strongly in response to AITC”. Besides, the “Calcium response with ppk RNAi, AITC” value in assay [2] is “did not strongly affect their responses to AITC; also recorded: respond to AITC similarly as genetic controls”. In addition, the “Calcium response of cIII da neurons expressing dTRPA1-C, AITC” value in assay [3] is listed as “renders them responsive to AITC; also recorded: rendered them sensitive to AITC”. In addition, the “Calcium response of cIII da neurons expressing dTRPA1-D, AITC” value in assay [4] is given as “renders them responsive to AITC; also recorded: rendered them sensitive to AITC”. Also, in assay [5], the “Calcium response with bba RNAi, AITC” value is “did not strongly affect their responses to AITC; also recorded: respond to AITC similarly as genetic controls”.
